The text below walks through data of the NIST ThermoML archive (doi:10.1021/je050544m).

The nature of the data set: activity coefficient (dimensionless); of the first substance listed, at infinite dilution; xn = mol fraction of the nth substance listed. Particulars: 101 kPa, Liquid, x1 = 0.

Structures are written as SMILES. ± gives the expanded uncertainty stated by the source.

Turning to `ClCCCl` [1,2-dichloroethane] + CCCCCCCC[n+]1ccn(C)c1.F[B-](F)(F)F, the activity coefficient (323 K, Chromatography) was found to be 0.93 ± 0.09 and the activity coefficient (343 K, Chromatography) was 0.95 ± 0.1.
In the same order, the values of `ClCCCl` [1,2-dichloroethane] + CCCCCCn1cc[n+](C)c1.F[B-](F)(F)F are 1.06 ± 0.11 and 1.19 ± 0.12.
The like results for `ClCCCl` [1,2-dichloroethane] + CCCCn1cc[n+](C)c1.F[B-](F)(F)F were, in that order, 1.51 ± 0.16 and 1.63 ± 0.17.
The like results for `ClCCCl` [1,2-dichloroethane] + CCn1cc[n+](C)c1.F[B-](F)(F)F were, in that order, 1.32 ± 0.14 and 1.37 ± 0.14.
With `CC(C)CC(C)(C)C` [2,2,4-trimethylpentane] + CCCCCCCC[n+]1ccn(C)c1.F[B-](F)(F)F, the activity coefficient amounted to 17.7 ± 1.9 (323 K, Chromatography) and 17 ± 1.8 (343 K, Chromatography).
Consider `CC(C)CC(C)(C)C` [2,2,4-trimethylpentane] + CCCCCCn1cc[n+](C)c1.F[B-](F)(F)F, for which the activity coefficient (303 K, Chromatography) is 54.1 ± 5.7 and the activity coefficient (343 K, Chromatography) is 44.5 ± 4.7.
In the case of `CC(C)CC(C)(C)C` [2,2,4-trimethylpentane] + CCCCn1cc[n+](C)c1.F[B-](F)(F)F, the activity coefficient amounted to 145 ± 15 (303 K, Chromatography); 127 ± 13 (323 K, Chromatography); 125 ± 13 (343 K, Chromatography).
Take `CC(C)CC(C)(C)C` [2,2,4-trimethylpentane] + CCn1cc[n+](C)c1.F[B-](F)(F)F: the activity coefficient reads like this: (303 K, Chromatography) 222 ± 23; (323 K, Chromatography) 168 ± 18; (343 K, Chromatography) 162 ± 17.
For `CC(C)=O` [acetone] + CCCCCCCC[n+]1ccn(C)c1.F[B-](F)(F)F, the activity coefficient reads like this: (323 K, Chromatography) 0.78 ± 0.08; (343 K, Chromatography) 0.83 ± 0.09.
With `CC(C)=O` [acetone] + CCCCCCn1cc[n+](C)c1.F[B-](F)(F)F, the activity coefficient runs as follows: (323 K, Chromatography) 0.85 ± 0.09; (343 K, Chromatography) 0.91 ± 0.09.
In the same order, the values of `CC(C)=O` [acetone] + CCCCn1cc[n+](C)c1.F[B-](F)(F)F are 1.05 ± 0.11 and 1.11 ± 0.11.
The like results for `CC(C)=O` [acetone] + CCn1cc[n+](C)c1.F[B-](F)(F)F were, in that order, 1.11 ± 0.11 and 1.14 ± 0.12.
With `c1ccccc1` [benzene] + CCCCCCCC[n+]1ccn(C)c1.F[B-](F)(F)F, the activity coefficient reads like this: (303 K, Chromatography) 1.28 ± 0.13; (323 K, Chromatography) 1.29 ± 0.13; (343 K, Chromatography) 1.29 ± 0.13.
`c1ccccc1` [benzene] + CCCCCCn1cc[n+](C)c1.F[B-](F)(F)F: the activity coefficient runs as follows: (303 K, Chromatography) 1.63 ± 0.17; (323 K, Chromatography) 1.65 ± 0.17; (343 K, Chromatography) 1.68 ± 0.18.
The like results for `c1ccccc1` [benzene] + CCCCn1cc[n+](C)c1.F[B-](F)(F)F were, in that order, 2.39 ± 0.25, 2.43 ± 0.26 and 2.48 ± 0.26.
In the same order, the values of `c1ccccc1` [benzene] + CCn1cc[n+](C)c1.F[B-](F)(F)F are 2.42 ± 0.25, 2.51 ± 0.26 and 2.47 ± 0.26.
`CCC(C)=O` [butanone] + CCCCCCCC[n+]1ccn(C)c1.F[B-](F)(F)F: the activity coefficient by setting is: (323 K, Chromatography) 1.01 ± 0.1; (343 K, Chromatography) 1.04 ± 0.11.
In the same order, the values of `CCC(C)=O` [butanone] + CCCCCCn1cc[n+](C)c1.F[B-](F)(F)F are 1.14 ± 0.12 and 1.21 ± 0.12.
The like results for `CCC(C)=O` [butanone] + CCCCn1cc[n+](C)c1.F[B-](F)(F)F were, in that order, 1.64 ± 0.17 and 1.72 ± 0.18.
The like results for `CCC(C)=O` [butanone] + CCn1cc[n+](C)c1.F[B-](F)(F)F were, in that order, 1.66 ± 0.17 and 1.77 ± 0.18.
As for `C1CCCCC1` [cyclohexane] + CCCCCCCC[n+]1ccn(C)c1.F[B-](F)(F)F, the activity coefficient (303 K, Chromatography) was determined as 8.52 ± 0.9; the activity coefficient (323 K, Chromatography) was found to be 7.99 ± 0.84; the activity coefficient (343 K, Chromatography) worked out at 7.36 ± 0.77.
Consider `C1CCCCC1` [cyclohexane] + CCCCCCn1cc[n+](C)c1.F[B-](F)(F)F, for which the activity coefficient (303 K, Differential ebulliometry) was determined as 18.6 ± 1.9; the activity coefficient (323 K, Differential ebulliometry) was 16.5 ± 1.6; the activity coefficient (343 K, Differential ebulliometry) was found to be 15.2 ± 1.5.
Take `C1CCCCC1` [cyclohexane] + CCCCn1cc[n+](C)c1.F[B-](F)(F)F: the activity coefficient is, setting by setting: (303 K, Chromatography) 44.9 ± 4.7; (323 K, Chromatography) 38.4 ± 4; (343 K, Chromatography) 32.8 ± 3.5.
Take `C1CCCCC1` [cyclohexane] + CCn1cc[n+](C)c1.F[B-](F)(F)F: the activity coefficient reads like this: (303 K, Chromatography) 53.7 ± 5.7; (323 K, Chromatography) 46.2 ± 4.9; (343 K, Chromatography) 38.9 ± 4.1.
For `CCOCC` [diethyl ether] + CCCCCCCC[n+]1ccn(C)c1.F[B-](F)(F)F, the activity coefficient (323 K, Chromatography) amounted to 3.2 ± 0.34 and the activity coefficient (343 K, Chromatography) is 3.39 ± 0.36.
Regarding `CCOCC` [diethyl ether] + CCCCCCn1cc[n+](C)c1.F[B-](F)(F)F, where the note is “343 K, Chromatography”, the activity coefficient was found to be 2.53 ± 0.27.
Consider `CCOCC` [diethyl ether] + CCCCn1cc[n+](C)c1.F[B-](F)(F)F, for which the activity coefficient (343 K, Chromatography) stood at 8.05 ± 0.85.
Regarding `CCO` [ethanol] + CCCCCCCC[n+]1ccn(C)c1.F[B-](F)(F)F, the activity coefficient is 1.24 ± 0.13 (323 K, Chromatography) and 1.1 ± 0.11 (343 K, Chromatography).
In the same order, the values of `CCO` [ethanol] + CCCCCCn1cc[n+](C)c1.F[B-](F)(F)F are 1.47 ± 0.15 and 1.31 ± 0.13.
The like results for `CCO` [ethanol] + CCCCn1cc[n+](C)c1.F[B-](F)(F)F were, in that order, 1.91 ± 0.2 and 1.63 ± 0.17.
Consider `CCO` [ethanol] + CCn1cc[n+](C)c1.F[B-](F)(F)F, for which the activity coefficient (323 K, Chromatography) was 0.76 ± 0.08.
As for `CCOC(C)=O` [ethyl acetate] + CCCCCCCC[n+]1ccn(C)c1.F[B-](F)(F)F, the activity coefficient (323 K, Chromatography) came to 1.55 ± 0.16 and the activity coefficient (343 K, Chromatography) came to 1.62 ± 0.17.
In the same order, the values of `CCOC(C)=O` [ethyl acetate] + CCCCCCn1cc[n+](C)c1.F[B-](F)(F)F are 5.58 ± 0.59 and 5.48 ± 0.58.
For `CCOC(C)=O` [ethyl acetate] + CCCCn1cc[n+](C)c1.F[B-](F)(F)F, the activity coefficient stood at 2.86 ± 0.3 (323 K, Chromatography) and 2.99 ± 0.31 (343 K, Chromatography).
In the same order, the values of `CCOC(C)=O` [ethyl acetate] + CCn1cc[n+](C)c1.F[B-](F)(F)F are 3.08 ± 0.32 and 3.32 ± 0.35.
For `CCc1ccccc1` [ethylbenzene] + CCCCCCCC[n+]1ccn(C)c1.F[B-](F)(F)F, the activity coefficient is, setting by setting: (323 K, Chromatography) 2.35 ± 0.25; (343 K, Chromatography) 2.66 ± 0.28.
On to `CCc1ccccc1` [ethylbenzene] + CCCCCCn1cc[n+](C)c1.F[B-](F)(F)F, for which the activity coefficient stood at 3.63 ± 0.38 (323 K, Chromatography) and 4.05 ± 0.43 (343 K, Chromatography).
Take `CCc1ccccc1` [ethylbenzene] + CCCCn1cc[n+](C)c1.F[B-](F)(F)F: the activity coefficient is 6.65 ± 0.7 (323 K, Chromatography) and 7.2 ± 0.76 (343 K, Chromatography).
Take `CCc1ccccc1` [ethylbenzene] + CCn1cc[n+](C)c1.F[B-](F)(F)F: the activity coefficient by setting is: (323 K, Chromatography) 7.05 ± 0.74; (343 K, Chromatography) 6.87 ± 0.72.
Regarding `CCCCCCC` [heptane] + CCCCCCCC[n+]1ccn(C)c1.F[B-](F)(F)F, the activity coefficient runs as follows: (303 K, Chromatography) 16.7 ± 1.8; (323 K, Chromatography) 16.3 ± 1.7; (343 K, Chromatography) 15.2 ± 1.6.
